Experimental data taken from PubChem BioAssay (NCI).
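These data come from cells grown in 96-well plates and exposed to compound for 48 hours at five concentrations. Abbreviation: GI50, concentration required for 50% inhibition of growth. TGI: total growth inhibition.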

Tests used:
Experiment in all cases: growth of human tumour cells (NCI), 48 h
786-0 renal = tested on: 786-0 renal
A498 renal = tested on: A498 renal
A549 NSCLC = tested on: A549 NSCLC
ACHN renal = tested on: ACHN renal
BT-549 breast = tested on: BT-549 breast
CAKI-1 renal = tested on: CAKI-1 renal
CCRF-CEM leukemia = tested on: CCRF-CEM leukemia
COLO 205 colon = tested on: COLO 205 colon
DU-145 prostate = tested on: DU-145 prostate
EKVX NSCLC = tested on: EKVX NSCLC
HCC-2998 colon = tested on: HCC-2998 colon
HCT-116 colon = tested on: HCT-116 colon
HCT-15 colon = tested on: HCT-15 colon
HL-60(TB) leukemia = tested on: HL-60(TB) leukemia
HOP-62 NSCLC = tested on: HOP-62 NSCLC
HOP-92 NSCLC = tested on: HOP-92 NSCLC
HS 578T breast = tested on: HS 578T breast
HT29 colon = tested on: HT29 colon
IGROV1 ovarian = tested on: IGROV1 ovarian
K-562 leukemia = tested on: K-562 leukemia
KM12 colon = tested on: KM12 colon
LOX IMVI melanoma = tested on: LOX IMVI melanoma
M14 melanoma = tested on: M14 melanoma
MALME-3M melanoma = tested on: MALME-3M melanoma
MCF7 breast = tested on: MCF7 breast
MDA-MB-231 breast = tested on: MDA-MB-231 breast
MDA-MB-435 = tested on: MDA-MB-435
MOLT-4 leukemia = tested on: MOLT-4 leukemia
NCI-H226 lung = tested on: NCI-H226 lung
NCI-H23 lung = tested on: NCI-H23 lung
NCI-H460 lung = tested on: NCI-H460 lung
NCI-H522 lung = tested on: NCI-H522 lung
NCI/ADR-RES ovarian = tested on: NCI/ADR-RES ovarian
OVCAR-3 ovarian = tested on: OVCAR-3 ovarian
OVCAR-4 ovarian = tested on: OVCAR-4 ovarian
OVCAR-5 ovarian = tested on: OVCAR-5 ovarian
OVCAR-8 ovarian = tested on: OVCAR-8 ovarian
PC-3 prostate = tested on: PC-3 prostate
RPMI-8226 leukemia = tested on: RPMI-8226 leukemia
RXF 393 renal = tested on: RXF 393 renal
SF-268 CNS = tested on: SF-268 CNS
SF-295 CNS = tested on: SF-295 CNS
SF-539 CNS = tested on: SF-539 CNS
SK-MEL-2 melanoma = tested on: SK-MEL-2 melanoma
SK-MEL-28 melanoma = tested on: SK-MEL-28 melanoma
SK-MEL-5 melanoma = tested on: SK-MEL-5 melanoma
SK-OV-3 ovarian = tested on: SK-OV-3 ovarian
SN12C renal = tested on: SN12C renal
SNB-19 CNS = tested on: SNB-19 CNS
SNB-75 CNS = tested on: SNB-75 CNS
SW-620 colon = tested on: SW-620 colon
T-47D breast = tested on: T-47D breast
TK-10 renal = tested on: TK-10 renal
U251 CNS = tested on: U251 CNS
UACC-257 melanoma = tested on: UACC-257 melanoma
UACC-62 melanoma = tested on: UACC-62 melanoma
UO-31 renal = tested on: UO-31 renal
SR leukemia = tested on: SR leukemia

COc1ccc2cc(-c3c(-c4ccncc4)nc(-c4ccc(S(C)=O)cc4C)n3C)ccc2c1 (stereo not given) was tested, and the GI50 (786-0 renal) was 24.3 µM, the TGI (786-0 renal) was over 25 µM and the GI50 (A498 renal) was 8.32 µM. It also gave a TGI (A498 renal) of over 25 µM, a GI50 (A549 NSCLC) of 15.5 µM and a TGI (A549 NSCLC) of over 25 µM. It also gave a GI50 (ACHN renal) of 13.2 µM, a TGI (ACHN renal) of over 25 µM and a GI50 (BT-549 breast) of over 21.9 µM. For the same compound, the TGI (BT-549 breast) was over 25 µM, the GI50 (CAKI-1 renal) was 6.98 µM and the TGI (CAKI-1 renal) was over 25 µM. It also gave a GI50 (CCRF-CEM leukemia) of over 25 µM, a TGI (CCRF-CEM leukemia) of over 25 µM and a GI50 (COLO 205 colon) of 14.8 µM. For the same compound, the TGI (COLO 205 colon) was over 25 µM, the GI50 (DU-145 prostate) was over 25 µM and the TGI (DU-145 prostate) was over 25 µM. For the same compound, the GI50 (EKVX NSCLC) was 8.34 µM, the TGI (EKVX NSCLC) was over 25 µM and the GI50 (HCC-2998 colon) was over 25 µM. For the same compound, the TGI (HCC-2998 colon) was over 25 µM, the GI50 (HCT-116 colon) was 17.9 µM and the TGI (HCT-116 colon) was over 25 µM. It also gave a GI50 (HCT-15 colon) of 16.7 µM, a TGI (HCT-15 colon) of over 25 µM and a GI50 (HL-60(TB) leukemia) of 9.61 µM. The TGI (HL-60(TB) leukemia) was over 25 µM, the GI50 (HOP-62 NSCLC) was 24.7 µM and the TGI (HOP-62 NSCLC) was over 25 µM. For the same compound, the GI50 (HOP-92 NSCLC) was 4.66 µM, the TGI (HOP-92 NSCLC) was over 25 µM and the GI50 (HS 578T breast) was over 25 µM. The TGI (HS 578T breast) was over 25 µM, the GI50 (HT29 colon) was 10.6 µM and the TGI (HT29 colon) was over 25 µM. It also gave a GI50 (IGROV1 ovarian) of 11.1 µM, a TGI (IGROV1 ovarian) of over 25 µM and a GI50 (K-562 leukemia) of 13.4 µM. The TGI (K-562 leukemia) was over 25 µM, the GI50 (KM12 colon) was over 22.3 µM and the TGI (KM12 colon) was over 25 µM. It also gave a GI50 (LOX IMVI melanoma) of 16.4 µM, a TGI (LOX IMVI melanoma) of over 25 µM and a GI50 (M14 melanoma) of over 21.6 µM. For the same compound, the TGI (M14 melanoma) was over 25 µM, the GI50 (MALME-3M melanoma) was 7.04 µM and the TGI (MALME-3M melanoma) was over 25 µM. It also gave a GI50 (MCF7 breast) of 14.1 µM, a TGI (MCF7 breast) of over 25 µM and a GI50 (MDA-MB-231 breast) of over 25 µM. It also gave a TGI (MDA-MB-231 breast) of over 25 µM, a GI50 (MDA-MB-435) of 11.2 µM and a TGI (MDA-MB-435) of over 25 µM. The GI50 (MOLT-4 leukemia) was 17.4 µM, the TGI (MOLT-4 leukemia) was over 25 µM and the GI50 (NCI-H226 lung) was over 20.5 µM. The TGI (NCI-H226 lung) was over 25 µM, the GI50 (NCI-H23 lung) was over 25 µM and the TGI (NCI-H23 lung) was over 25 µM. The GI50 (NCI-H460 lung) was 24.6 µM, the TGI (NCI-H460 lung) was over 25 µM and the GI50 (NCI-H522 lung) was 10.6 µM. For the same compound, the TGI (NCI-H522 lung) was over 25 µM, the GI50 (NCI/ADR-RES ovarian) was 24.3 µM and the TGI (NCI/ADR-RES ovarian) was over 25 µM. For the same compound, the GI50 (OVCAR-3 ovarian) was 14.3 µM, the TGI (OVCAR-3 ovarian) was over 25 µM and the GI50 (OVCAR-4 ovarian) was 16.3 µM. For the same compound, the TGI (OVCAR-4 ovarian) was over 25 µM, the GI50 (OVCAR-5 ovarian) was over 25 µM and the TGI (OVCAR-5 ovarian) was over 25 µM. The GI50 (OVCAR-8 ovarian) was 24.7 µM, the TGI (OVCAR-8 ovarian) was over 25 µM and the GI50 (PC-3 prostate) was 15.9 µM. It also gave a TGI (PC-3 prostate) of over 25 µM, a GI50 (RPMI-8226 leukemia) of 14.1 µM and a TGI (RPMI-8226 leukemia) of over 25 µM. The GI50 (RXF 393 renal) was over 24.2 µM, the TGI (RXF 393 renal) was over 25 µM and the GI50 (SF-268 CNS) was over 25 µM. It also gave a TGI (SF-268 CNS) of over 25 µM, a GI50 (SF-295 CNS) of 16.6 µM and a TGI (SF-295 CNS) of over 25 µM. For the same compound, the GI50 (SF-539 CNS) was over 25 µM, the TGI (SF-539 CNS) was over 25 µM and the GI50 (SK-MEL-2 melanoma) was over 25 µM. It also gave a TGI (SK-MEL-2 melanoma) of over 25 µM, a GI50 (SK-MEL-28 melanoma) of over 25 µM and a TGI (SK-MEL-28 melanoma) of over 25 µM. For the same compound, the GI50 (SK-MEL-5 melanoma) was 7.58 µM, the TGI (SK-MEL-5 melanoma) was over 21.6 µM and the GI50 (SK-OV-3 ovarian) was 11.3 µM. The TGI (SK-OV-3 ovarian) was over 25 µM, the GI50 (SN12C renal) was 15.7 µM and the TGI (SN12C renal) was over 25 µM. The GI50 (SNB-19 CNS) was over 25 µM, the TGI (SNB-19 CNS) was over 25 µM and the GI50 (SNB-75 CNS) was over 20.8 µM. For the same compound, the TGI (SNB-75 CNS) was over 25 µM, the GI50 (SW-620 colon) was over 25 µM and the TGI (SW-620 colon) was over 25 µM. For the same compound, the GI50 (T-47D breast) was 8.78 µM, the TGI (T-47D breast) was over 25 µM and the GI50 (TK-10 renal) was 7.62 µM. The TGI (TK-10 renal) was over 25 µM, the GI50 (U251 CNS) was over 23.2 µM and the TGI (U251 CNS) was over 25 µM. The GI50 (UACC-257 melanoma) was 14.8 µM, the TGI (UACC-257 melanoma) was over 25 µM and the GI50 (UACC-62 melanoma) was 13.8 µM. The TGI (UACC-62 melanoma) was over 25 µM, the GI50 (UO-31 renal) was 6.37 µM and the TGI (UO-31 renal) was over 25 µM.

O=S(=O)(O)C1CCC(O)C2[N-]CCCC21.O=S(=O)(O)C1CCC(O)C2[N-]CCCC21.[Zn+2] (stereo not given) gave a TGI (786-0 renal) of over 100 µM, a TGI (A498 renal) of over 100 µM and a TGI (A549 NSCLC) of over 100 µM. The TGI (ACHN renal) was over 100 µM, the TGI (BT-549 breast) was over 100 µM and the TGI (CAKI-1 renal) was over 100 µM. The TGI (COLO 205 colon) was over 100 µM, the TGI (DU-145 prostate) was over 100 µM and the TGI (EKVX NSCLC) was over 100 µM. The TGI (HCC-2998 colon) was over 100 µM, the TGI (HCT-116 colon) was over 100 µM and the TGI (HCT-15 colon) was over 100 µM. For the same compound, the TGI (HL-60(TB) leukemia) was 51 µM, the TGI (HOP-62 NSCLC) was over 100 µM and the TGI (HOP-92 NSCLC) was over 100 µM. For the same compound, the TGI (HS 578T breast) was over 100 µM, the TGI (HT29 colon) was over 100 µM and the TGI (IGROV1 ovarian) was over 100 µM. For the same compound, the TGI (K-562 leukemia) was over 100 µM, the TGI (KM12 colon) was over 100 µM and the TGI (LOX IMVI melanoma) was over 100 µM. The TGI (M14 melanoma) was over 100 µM, the TGI (MALME-3M melanoma) was over 100 µM and the TGI (MCF7 breast) was over 100 µM. For the same compound, the TGI (MDA-MB-231 breast) was over 100 µM, the TGI (MDA-MB-435) was over 100 µM and the TGI (MOLT-4 leukemia) was over 100 µM. The TGI (NCI-H226 lung) was over 100 µM, the TGI (NCI-H460 lung) was over 100 µM and the TGI (NCI-H522 lung) was over 100 µM. The TGI (NCI/ADR-RES ovarian) was over 100 µM, the TGI (OVCAR-3 ovarian) was over 100 µM and the TGI (OVCAR-4 ovarian) was over 100 µM. The TGI (OVCAR-5 ovarian) was over 100 µM, the TGI (OVCAR-8 ovarian) was over 100 µM and the TGI (PC-3 prostate) was over 100 µM. The TGI (RPMI-8226 leukemia) was over 100 µM, the TGI (RXF 393 renal) was over 100 µM and the TGI (SF-268 CNS) was over 100 µM. It also gave a TGI (SF-295 CNS) of over 100 µM, a TGI (SF-539 CNS) of over 100 µM and a TGI (SK-MEL-2 melanoma) of over 100 µM. It also gave a TGI (SK-MEL-28 melanoma) of over 100 µM, a TGI (SK-MEL-5 melanoma) of over 100 µM and a TGI (SK-OV-3 ovarian) of over 100 µM. It also gave a TGI (SN12C renal) of over 100 µM, a TGI (SNB-19 CNS) of over 100 µM and a TGI (SNB-75 CNS) of over 100 µM. It also gave a TGI (SR leukemia) of over 100 µM, a TGI (SW-620 colon) of over 100 µM and a TGI (T-47D breast) of over 100 µM. It also gave a TGI (TK-10 renal) of over 100 µM, a TGI (U251 CNS) of over 100 µM and a TGI (UACC-257 melanoma) of over 100 µM. It also gave a TGI (UACC-62 melanoma) of over 100 µM and a TGI (UO-31 renal) of over 100 µM.
